Experimental data published in ChEMBL document CHEMBL4387728, “Synthetic glycopeptides reveal specific binding pattern and conformational change at O-mannosylated position of α-dystroglycan by POMGnT1 catalyzed GlcNAc modification” (Bioorg Med Chem, 2019).
Calls of active or inactive are those of the source. No cut-off for these calls is given here. Square brackets hold non-standard residues; d marks the D form. Peptide text beside a SMILES is read from it. * marks the point of attachment. X1 = CC(=O)N[C@H]1[C@H](O[C@H]2[C@@H](O)[C@H](O)[C@@H](CO)O[C@@H]2*)O[C@H](CO)[C@@H](O[C@@H]2O[C@H](CO)[C@H](O)[C@H](O[C@]3(C(=O)O)C[C@H](O)[C@@H](NC(C)=O)[C@H]([C@H](O)[C@H](O)CO)O3)[C@H]2O)[C@@H]1O; X2 = CC(=O)N[C@H]1[C@H](O[C@H]2[C@@H](O)[C@H](O)[C@@H](CO)O[C@@H]2*)O[C@H](CO)[C@@H](O[C@@H]2O[C@H](CO)[C@H](O)[C@H](O)[C@H]2O)[C@@H]1O; GlcNAc(β1-2)αMan = CC(=O)N[C@H]1[C@H](O[C@H]2[C@@H](O)[C@H](O)[C@@H](CO)O[C@@H]2*)O[C@H](CO)[C@@H](O)[C@@H]1O; Orn(CH(NH2)2) = NC(N)NCCC[C@H](N)C(=O)O; Hexanoyl(5-oxo) = CC(=O)CCCC(=O)*

Columns and labels:
[1] = biological target: Lactotransferrin (Homo sapiens) (UniProt P02788); test: Binding affinity to biotin-labeled lactoferrin (unknown origin) at 10 ug/ml in pH 7.4 Tris buffer by fluorescence microarray method
Lactotransferrin (Homo sapiens), sequence (P02788 whole entry): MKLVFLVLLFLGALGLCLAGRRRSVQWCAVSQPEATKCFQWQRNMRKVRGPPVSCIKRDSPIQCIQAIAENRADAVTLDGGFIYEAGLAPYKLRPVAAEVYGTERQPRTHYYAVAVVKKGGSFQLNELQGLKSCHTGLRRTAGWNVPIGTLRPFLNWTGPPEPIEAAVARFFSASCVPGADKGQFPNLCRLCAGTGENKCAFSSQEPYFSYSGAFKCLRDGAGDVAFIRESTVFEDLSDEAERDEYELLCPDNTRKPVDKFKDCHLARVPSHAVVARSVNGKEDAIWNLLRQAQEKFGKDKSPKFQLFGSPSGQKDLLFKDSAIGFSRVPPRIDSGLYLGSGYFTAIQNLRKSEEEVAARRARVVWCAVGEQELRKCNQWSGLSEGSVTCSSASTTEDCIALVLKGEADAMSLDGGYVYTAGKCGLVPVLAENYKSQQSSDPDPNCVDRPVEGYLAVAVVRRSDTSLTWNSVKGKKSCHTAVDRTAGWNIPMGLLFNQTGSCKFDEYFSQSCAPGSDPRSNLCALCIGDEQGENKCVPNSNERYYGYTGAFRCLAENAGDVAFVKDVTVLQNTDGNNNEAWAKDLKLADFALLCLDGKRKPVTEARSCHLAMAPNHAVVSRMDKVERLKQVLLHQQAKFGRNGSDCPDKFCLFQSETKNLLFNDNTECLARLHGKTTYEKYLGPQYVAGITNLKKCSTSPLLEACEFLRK

[2] = test system: Sambucus racemosa subsp. sieboldiana; test: Binding affinity to biotin-labeled Sambucus sieboldiana agglutinin in pH 7.4 Tris buffer by fluorescence microarray method
Triticum aestivum = test: Binding affinity to biotin-labeled Wheat germ agglutinin in pH 7.4 Tris buffer by fluorescence microarray method
[3] = Binding affinity to biotin-labeled Agaricus bisporus agglutinin in pH 7.4 Tris buffer by fluorescence microarray method
Homo sapiens [4] = species on record: Homo sapiens; test: Binding affinity to biotin-labeled human recombinant laminin-2 at 10 ug/ml in 5.6 MES buffer by fluorescence microarray method
Arachis hypogaea = test: Binding affinity to biotin-labeled Arachis hypogaea agglutinin in pH 7.4 Tris buffer by fluorescence microarray method
Homo sapiens [5] = species on record: Homo sapiens; test: Binding affinity to biotin-labeled human recombinant laminin-2 at 10 ug/ml in pH 7.4 Tris buffer by fluorescence microarray method
[6] = biological target: Lactotransferrin (Homo sapiens) (UniProt P02788); test: Binding affinity to biotin-labeled lactoferrin (unknown origin) at 10 ug/ml in pH 5.6 MES buffer by fluorescence microarray method
Maackia amurensis = test: Binding affinity to biotin-labeled Maackia amurensis agglutinin in pH 7.4 Tris buffer by fluorescence microarray method
Datura stramonium = test: Binding affinity to biotin-labeled Datura stramonium agglutinin in pH 7.4 Tris buffer by fluorescence microarray method
[7] = biological target: Laminin subunit alpha-1 (Homo sapiens) (UniProt P25391); test: Binding affinity to biotin-labeled human recombinant laminin-1 at 10 ug/ml in pH 5.6 MES buffer by fluorescence microarray method
Laminin subunit alpha-1 (Homo sapiens), sequence (P25391 whole entry): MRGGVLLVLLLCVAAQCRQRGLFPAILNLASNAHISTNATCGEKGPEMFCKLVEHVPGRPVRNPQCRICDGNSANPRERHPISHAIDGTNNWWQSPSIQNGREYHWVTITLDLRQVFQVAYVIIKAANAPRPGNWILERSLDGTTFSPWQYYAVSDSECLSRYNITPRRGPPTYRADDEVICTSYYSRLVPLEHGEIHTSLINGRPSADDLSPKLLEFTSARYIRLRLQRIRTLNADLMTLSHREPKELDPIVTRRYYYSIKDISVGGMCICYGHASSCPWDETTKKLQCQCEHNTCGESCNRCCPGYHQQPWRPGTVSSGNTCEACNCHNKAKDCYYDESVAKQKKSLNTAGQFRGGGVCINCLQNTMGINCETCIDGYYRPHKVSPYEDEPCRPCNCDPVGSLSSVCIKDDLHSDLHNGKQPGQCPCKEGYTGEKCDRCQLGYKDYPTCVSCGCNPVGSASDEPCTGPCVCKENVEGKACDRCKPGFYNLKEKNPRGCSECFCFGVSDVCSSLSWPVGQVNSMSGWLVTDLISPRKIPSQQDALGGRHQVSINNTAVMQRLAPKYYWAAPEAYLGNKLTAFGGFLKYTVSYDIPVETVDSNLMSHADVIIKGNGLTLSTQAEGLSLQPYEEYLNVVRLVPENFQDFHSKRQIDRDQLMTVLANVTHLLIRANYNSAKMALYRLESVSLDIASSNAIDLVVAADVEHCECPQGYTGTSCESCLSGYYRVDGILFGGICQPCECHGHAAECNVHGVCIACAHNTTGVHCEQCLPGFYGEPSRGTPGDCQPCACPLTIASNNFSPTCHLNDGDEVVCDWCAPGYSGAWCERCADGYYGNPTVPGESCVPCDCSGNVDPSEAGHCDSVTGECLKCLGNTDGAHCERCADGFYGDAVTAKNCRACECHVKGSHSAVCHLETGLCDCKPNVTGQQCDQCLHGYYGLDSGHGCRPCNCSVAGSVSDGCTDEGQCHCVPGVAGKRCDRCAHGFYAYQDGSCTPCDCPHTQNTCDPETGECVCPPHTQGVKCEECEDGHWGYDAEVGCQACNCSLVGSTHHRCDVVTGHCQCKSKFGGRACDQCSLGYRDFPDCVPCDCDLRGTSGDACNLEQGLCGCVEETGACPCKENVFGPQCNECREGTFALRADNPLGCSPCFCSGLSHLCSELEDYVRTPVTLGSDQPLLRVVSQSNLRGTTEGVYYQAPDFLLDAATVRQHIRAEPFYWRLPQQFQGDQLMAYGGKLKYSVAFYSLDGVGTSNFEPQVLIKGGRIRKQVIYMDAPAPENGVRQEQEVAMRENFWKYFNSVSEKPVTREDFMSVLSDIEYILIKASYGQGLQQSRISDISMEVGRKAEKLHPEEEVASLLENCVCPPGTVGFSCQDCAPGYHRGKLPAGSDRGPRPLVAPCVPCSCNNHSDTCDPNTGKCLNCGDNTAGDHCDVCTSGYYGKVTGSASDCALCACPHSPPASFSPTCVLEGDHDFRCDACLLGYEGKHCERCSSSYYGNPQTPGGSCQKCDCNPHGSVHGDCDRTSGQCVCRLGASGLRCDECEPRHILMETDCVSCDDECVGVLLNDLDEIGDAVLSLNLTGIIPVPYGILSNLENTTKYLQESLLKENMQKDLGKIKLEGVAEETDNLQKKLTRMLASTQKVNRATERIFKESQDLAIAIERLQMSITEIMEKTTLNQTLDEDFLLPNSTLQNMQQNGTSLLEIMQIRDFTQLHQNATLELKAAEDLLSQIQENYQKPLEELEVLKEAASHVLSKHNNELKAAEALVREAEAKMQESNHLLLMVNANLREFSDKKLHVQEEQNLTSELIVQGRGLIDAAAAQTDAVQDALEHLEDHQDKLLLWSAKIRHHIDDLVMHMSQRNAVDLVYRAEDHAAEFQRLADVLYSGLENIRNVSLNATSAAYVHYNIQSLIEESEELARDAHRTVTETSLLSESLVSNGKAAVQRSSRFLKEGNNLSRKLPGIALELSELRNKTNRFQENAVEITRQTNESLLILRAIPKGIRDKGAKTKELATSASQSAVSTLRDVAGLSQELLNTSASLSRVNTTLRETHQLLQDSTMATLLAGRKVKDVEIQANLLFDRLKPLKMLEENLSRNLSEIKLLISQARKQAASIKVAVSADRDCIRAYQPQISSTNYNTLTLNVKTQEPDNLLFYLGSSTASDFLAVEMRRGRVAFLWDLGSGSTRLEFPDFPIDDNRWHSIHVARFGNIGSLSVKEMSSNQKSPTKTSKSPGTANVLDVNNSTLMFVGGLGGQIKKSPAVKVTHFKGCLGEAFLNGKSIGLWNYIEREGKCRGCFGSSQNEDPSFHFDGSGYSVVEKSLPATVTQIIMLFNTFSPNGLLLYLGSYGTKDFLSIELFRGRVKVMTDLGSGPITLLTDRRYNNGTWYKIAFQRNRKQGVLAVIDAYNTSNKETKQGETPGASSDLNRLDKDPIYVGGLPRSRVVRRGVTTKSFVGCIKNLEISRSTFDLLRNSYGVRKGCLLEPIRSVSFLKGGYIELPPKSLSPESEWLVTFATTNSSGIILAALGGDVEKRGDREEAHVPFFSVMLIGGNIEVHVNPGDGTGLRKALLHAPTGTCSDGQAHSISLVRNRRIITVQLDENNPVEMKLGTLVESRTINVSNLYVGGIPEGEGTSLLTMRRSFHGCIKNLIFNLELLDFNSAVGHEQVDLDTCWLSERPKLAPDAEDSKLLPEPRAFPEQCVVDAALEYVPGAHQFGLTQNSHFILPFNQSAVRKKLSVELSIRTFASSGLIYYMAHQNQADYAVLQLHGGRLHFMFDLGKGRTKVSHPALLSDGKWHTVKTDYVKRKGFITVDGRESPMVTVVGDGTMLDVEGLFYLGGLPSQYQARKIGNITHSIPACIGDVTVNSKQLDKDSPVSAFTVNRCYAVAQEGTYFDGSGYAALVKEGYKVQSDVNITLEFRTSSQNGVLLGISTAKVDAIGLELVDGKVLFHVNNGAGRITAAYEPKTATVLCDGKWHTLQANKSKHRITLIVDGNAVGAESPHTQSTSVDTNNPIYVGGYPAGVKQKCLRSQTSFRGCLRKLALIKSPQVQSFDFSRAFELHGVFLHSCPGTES

Canavalia ensiformis = test: Binding affinity to biotin-labeled Canavalia ensiformis agglutinin in pH 7.4 Tris buffer by fluorescence microarray method
[8] = biological target: Laminin subunit alpha-1 (Homo sapiens) (UniProt P25391); test: Binding affinity to biotin-labeled human recombinant laminin-1 at 10 ug/ml in pH 7.4 Tris buffer by fluorescence microarray method
Erythrina crista-galli = test: Binding affinity to biotin-labeled Erythrina crista-galli agglutinin in pH 7.4 Tris buffer by fluorescence microarray method

| Activity [1] | Activity [2] | Activity (Triticum aestivum) | Activity [3] | Activity (Homo sapiens [4]) | Activity (Arachis hypogaea) | Activity (Homo sapiens [5]) | Activity [6] | Activity (Maackia amurensis) | Activity (Datura stramonium) | Activity [7] | Activity (Canavalia ensiformis) | Activity [8] | Activity (Erythrina crista-galli) | Structure (SMILES) |
| --- | --- | --- | --- | --- | --- | --- | --- | --- | --- | --- | --- | --- | --- | --- |
| inactive | Active | Active | Active | Active | Active | inactive | Active | inactive | inactive | Active | Active | Active | Active | CC[C@H](C)[C@H](NC(=O)[C@H](C)NC(=O)CNC(=O)[C@H](CCCNC(=N)N)NC(=O)[C@@H](NC(=O)CCCC(C)=O)[C@@H](C)O)C(=O)N[C@H](C(=O)N[C@@H](CCC(N)=O)C(=O)N[C@H](C(=O)N1CCC[C@H]1C(=O)N[C@H](C(=O)N[C@@H](CC(C)C)C(=O)NCC(=O)N1CCC[C@H]1C(=O)N[C@H](C(=O)N[C@@H](CCC(N)=O)C(=O)N1CCC[C@H]1C(=O)N[C@H](C(=O)N[C@@H](CCCNC(=N)N)C(=O)N[C@H](C(N)=O)C(C)C)[C@@H](C)O[C@H]1O[C@H](CO)[C@@H](O)[C@H](O)[C@@H]1O[C@@H]1O[C@H](CO)[C@@H](O)[C@H](O)[C@H]1NC(C)=O)[C@@H](C)CC)[C@@H](C)O)[C@@H](C)O)[C@@H](C)CC ({Hexanoyl(5-oxo)}-TRGAIIQTPTLGPIQPT(GlcNAc(β1-2)αMan)RV-NH2) |
| inactive | Active | Active | Active | Active | Active | inactive | Active | inactive | inactive | Active | Active | Active | Active | CC[C@H](C)[C@H](NC(=O)[C@H](C)NC(=O)CNC(=O)[C@H](CCCNC(=N)N)NC(=O)[C@@H](NC(=O)CCCC(C)=O)[C@@H](C)O)C(=O)N[C@H](C(=O)N[C@@H](CCC(N)=O)C(=O)N[C@H](C(=O)N1CCC[C@H]1C(=O)N[C@H](C(=O)N[C@@H](CC(C)C)C(=O)NCC(=O)N1CCC[C@H]1C(=O)N[C@H](C(=O)N[C@@H](CCC(N)=O)C(=O)N1CCC[C@H]1C(=O)N[C@H](C(=O)N[C@@H](CCCNC(=N)N)C(=O)N[C@H](C(N)=O)C(C)C)[C@@H](C)O[C@H]1O[C@H](CO)[C@@H](O)[C@H](O)[C@@H]1O[C@@H]1O[C@H](CO)[C@@H](O[C@@H]2O[C@H](CO)[C@H](O)[C@H](O[C@]3(C(=O)O)C[C@H](O)[C@@H](NC(C)=O)[C@H]([C@H](O)[C@H](O)CO)O3)[C@H]2O)[C@H](O)[C@H]1NC(C)=O)[C@@H](C)CC)[C@@H](C)O)[C@@H](C)O)[C@@H](C)CC ({Hexanoyl(5-oxo)}-TRGAIIQTPTLGPIQPT(X1)RV-NH2) |
| inactive | Active | Active | Active | Active | Active | inactive | Active | inactive | inactive | Active | Active | Active | Active | CC[C@H](C)[C@H](NC(=O)[C@H](C)NC(=O)CNC(=O)[C@H](CCCNC(=N)N)NC(=O)[C@@H](NC(=O)CCCC(C)=O)[C@@H](C)O)C(=O)N[C@H](C(=O)N[C@@H](CCC(N)=O)C(=O)N[C@H](C(=O)N1CCC[C@H]1C(=O)N[C@H](C(=O)N[C@@H](CC(C)C)C(=O)NCC(=O)N1CCC[C@H]1C(=O)N[C@H](C(=O)N[C@@H](CCC(N)=O)C(=O)N1CCC[C@H]1C(=O)N[C@H](C(=O)N[C@@H](CCCNC(N)N)C(=O)N[C@H](C(N)=O)C(C)C)[C@@H](C)O[C@H]1O[C@H](CO)[C@@H](O)[C@H](O)[C@@H]1O[C@@H]1O[C@H](CO)[C@@H](O[C@@H]2O[C@H](CO)[C@H](O)[C@H](O)[C@H]2O)[C@H](O)[C@H]1NC(C)=O)[C@@H](C)CC)[C@@H](C)O)[C@@H](C)O)[C@@H](C)CC ({Hexanoyl(5-oxo)}-TRGAIIQTPTLGPIQPT(X2)[Orn(CH(NH2)2)]V-NH2) |
